Source: patent US20260256794A1, “Oral Dynamine Formulations and Methods Therefor” (Ortho-Nutra, LLC, priority 2023, published 2026)

Tests used:
Format in all cases: in vivo, human
[1] = system: subjects; experiment: Hemodynamics: heart rate
Experimental: (§1) Hemodynamics Systolic Blood Pressure, Diastolic Blood Pressure, Heart Rate were taken Pre and Post Stroop Test on Day 0; Pre and Post Stroop Test after 4 Days of Supplementation 0, 60, 120, and 180 minutes after ingestion of 4th dose.
(§2) For hemodynamic parameters, systolic blood pressure, diastolic blood pressure, and heart rate were taken pre- and post-Stroop Test on Day 0, and pre- and post-Stroop Test after 4 Days of Supplementation 0, 60, 120, and 180 minutes after ingestion of 4th dose.

[2] = system: subjects; experiment: VAS-Well-Being; design: VAS-Well-Being rating, Mean / VAS-Well-Being changes from baseline, Mean Difference ± SE / VAS-Well-Being area under the curve, Mean Difference ± SE / VAS-Well-Being area under the curve, Mean: scale not given here
Experimental: (§3) The inventors have discovered various compositions and methods of improving various indices of neurological and neuroenergetic functions by administering 100 mg (once daily) dosages of DYNAMINE™ (dosage between 1.0 and 1.4 mg/kg) as described in the following:
(§4) All neuroenergetic tests as listed below were performed and data were collected after 0 and 4 days of assigned supplements (with acute effects also measured at day 4 over 180 minutes):
(§5) All VAS Measurement (Energy, Sustained Energy, Mental Stamina, Ability to Focus, Ability to Concentrate, Motivation to Accomplish Difficult Tasks, Drive, Vigor, Level of Positive Outlook, Mood, Feelings of Well-Being, Tolerate Stress); Day 0: Two tests were completed. The average of both scores was computed and this value was used in all statistical analysis. Day 4 (0 minutes after ingesting dose #4): Two tests were completed. The average of both scores was computed and this value was used in all statistical analysis. Day 4 (60, 120, and 180 minutes after ingesting dose #4): One test was completed at each time point.
(§6) Neuroenergic parameters are inherently subjective, nevertheless significant in human behavior and well-being. To allow for a standardization among different subjects, the following experiments were performed using a visual analog scale using anchor statements (lowest possible/highest possible) in which subjects were asked to rate their subjective experience with respect to the specific neuroenergic parameters tested.
VAS-Well-Being: In this subjective test, subjects were asked to rate their personal level of energy on a VAS scale using the prompt of “My feeling of well-being right now is . . . ” (with rating lowest possible to highest possible)”. Results were collected as noted above and Table 34 provides exemplary results for Day 0 versus Day 4 ratings, whereas Table 35 provides exemplary acute results measured at Day 4 over a duration of 180 minutes.

[3] = system: subjects; experiment: Hemodynamics: systolic blood pressure; conditions: for Systolic blood pressure changes from baseline, Mean Difference ± SE / Systolic blood pressure changes from baseline, effect size d: between groups (placebo)
Experimental: as §3, §1, §2

[4] = system: subjects; experiment: VAS-Ability to concentrate; design: VAS-Ability to concentrate rating, Mean / VAS-Ability to concentrate changes from baseline, Mean Difference ± SE / VAS-Ability to concentrate area under the curve, Mean Difference ± SE / VAS-Ability to concentrate area under the curve, Mean: scale not given here
Experimental: as §3, §4, §5, §6
VAS-Ability to concentrate: In this subjective test, subjects were asked to rate their personal level of energy on a VAS scale using the prompt of “My ability to concentrate right now is . . . ” (with rating lowest possible to highest possible)”. Results were collected as noted above and Table 16 provides exemplary results for Day 0 versus Day 4 ratings, whereas Table 17 provides exemplary acute results measured at Day 4 over a duration of 180 minutes.

[5] = system: subjects; experiment: VAS-Ability to focus; design: VAS-Ability to focus rating, Mean / VAS-Ability to focus changes from baseline, Mean Difference ± SE / VAS-Ability to focus area under the curve, Mean Difference ± SE / VAS-Ability to focus area under the curve, Mean: scale not given here
Experimental: as §3, §4, §5, §6
VAS-Ability to focus: In this subjective test, subjects were asked to rate their personal level of energy on a VAS scale using the prompt of “My ability to focus right now is . . . ” (with rating lowest possible to highest possible)”. Results were collected as noted above and Table 13 provides exemplary results for Day 0 versus Day 4 ratings, whereas Table 14 provides exemplary acute results measured at Day 4 over a duration of 180 minutes.

[6] = system: subjects; experiment: Hemodynamics: diastolic blood pressure; conditions: for Diastolic blood pressure changes from baseline, Mean Difference ± SE / Diastolic blood pressure changes from baseline, effect size d: between groups (placebo)
Experimental: as §3, §1, §2

[7] = 100 mg once daily, Day 4, 0-180 min
[8] = 100 mg once daily, Day 4, 0-180 min, vs Group A (placebo)
[9] = 100 mg once daily, Day 4, 0 min after dose #4
[10] = 100 mg once daily, Day 4, 60 min-0 min, vs Group A (placebo)
[11] = 100 mg once daily, Day 4, 60 min after dose #4
[12] = 100 mg once daily, Day 4, 120 min-0 min, vs Group A (placebo)
[13] = 100 mg once daily, Day 4, 120 min after dose #4
[14] = 100 mg once daily, Day 4, 180 min-0 min, vs Group A (placebo)
[15] = 100 mg once daily, Day 4, 180 min after dose #4
[16] = 100 mg once daily, Day 4, 0 min after 4th dose
[17] = 100 mg once daily, Day 4, 60 min-0 min
[18] = 100 mg once daily, Day 4, 60 min after 4th dose
[19] = 100 mg once daily, Day 4, 120 min-0 min
[20] = 100 mg once daily, Day 4, 120 min after 4th dose
[21] = 100 mg once daily, Day 4, 180 min-0 min
[22] = 100 mg once daily, Day 4, 180 min after 4th dose

COc1nc2c(c(=O)n1C)n(C)c(=O)n2C [methylliberine, 2-methoxy-1,7,9-trimethylpurine-6,8-dione]
Heart rate, Mean ([1]; 100 mg once daily, Day 4): 69.8 beats/min
Heart rate, Mean ([1]; Day 0 (before supplementation)): 71.4 beats/min
VAS-Well-Being area under the curve, Mean [2, 7]: 1239
VAS-Well-Being area under the curve, Mean Difference ± SE [2, 8]: 14.9 ± 43.0
VAS-Well-Being area under the curve, effect size d [2, 8]: −0.05
VAS-Well-Being rating, Mean [2, 9]: 6.4
VAS-Well-Being changes from baseline, Mean Difference ± SE [2, 10]: 0.16 ± 0.16
VAS-Well-Being changes from baseline, effect size d [2, 10]: 0.22
VAS-Well-Being rating, Mean [2, 11]: 6.8
VAS-Well-Being changes from baseline, Mean Difference ± SE [2, 12]: 0.46 ± 0.29
VAS-Well-Being changes from baseline, effect size d [2, 12]: 0.45
VAS-Well-Being rating, Mean [2, 13]: 7.3
VAS-Well-Being changes from baseline, Mean Difference ± SE [2, 14]: 0.54 ± 1.34
VAS-Well-Being changes from baseline, effect size d [2, 14]: 0.52
VAS-Well-Being rating, Mean [2, 15]: 7.2
VAS-Well-Being rating, Mean ([2]; Day 0 (before supplementation)): 6.8
Systolic blood pressure, Mean [3, 16]: 121.4 mm Hg
Systolic blood pressure changes from baseline, Mean Difference ± SE [3, 17]: 1.16 ± 2.57 mm Hg
Systolic blood pressure changes from baseline, effect size d [3, 17]: −0.12
Systolic blood pressure, Mean [3, 18]: 117.9 mm Hg
Systolic blood pressure changes from baseline, Mean Difference ± SE [3, 19]: −0.60 ± 2.22 mm Hg
Systolic blood pressure changes from baseline, effect size d [3, 19]: 0.06
Systolic blood pressure, Mean [3, 20]: 120.6 mm Hg
Systolic blood pressure changes from baseline, Mean Difference ± SE [3, 21]: 2.40 ± 2.25 mm Hg
Systolic blood pressure changes from baseline, effect size d [3, 21]: −0.27
Systolic blood pressure, Mean [3, 22]: 120.0 mm Hg
Systolic blood pressure, Mean ([3]; Day 0 (before supplementation)): 118.6 mm Hg
VAS-Ability to concentrate area under the curve, Mean [4, 7]: 1162
VAS-Ability to concentrate area under the curve, Mean Difference ± SE [4, 8]: 48.1 ± 38.7
VAS-Ability to concentrate area under the curve, effect size d [4, 8]: 0.16
VAS-Ability to concentrate rating, Mean [4, 9]: 5.9
VAS-Ability to concentrate changes from baseline, Mean Difference ± SE [4, 10]: 0.26 ± 0.26
VAS-Ability to concentrate changes from baseline, effect size d [4, 10]: 0.28
VAS-Ability to concentrate rating, Mean [4, 11]: 6.5
VAS-Ability to concentrate changes from baseline, Mean Difference ± SE [4, 12]: 0.15 ± 0.27
VAS-Ability to concentrate changes from baseline, effect size d [4, 12]: 0.14
VAS-Ability to concentrate rating, Mean [4, 13]: 6.5
VAS-Ability to concentrate changes from baseline, Mean Difference ± SE [4, 14]: 0.70 ± 0.23
VAS-Ability to concentrate changes from baseline, effect size d [4, 14]: 0.68
VAS-Ability to concentrate rating, Mean [4, 15]: 6.8
VAS-Ability to concentrate rating, Mean ([4]; Day 0 (before supplementation)): 5.9
VAS-Ability to focus area under the curve, Mean [5, 7]: 1155
VAS-Ability to focus area under the curve, Mean Difference ± SE [5, 8]: 55.3 ± 40.9
VAS-Ability to focus area under the curve, effect size d [5, 8]: 0.17
VAS-Ability to focus rating, Mean [5, 9]: 6.0
VAS-Ability to focus changes from baseline, Mean Difference ± SE [5, 10]: 0.35 ± 0.30
VAS-Ability to focus changes from baseline, effect size d [5, 10]: 0.34
VAS-Ability to focus rating, Mean [5, 11]: 6.4
VAS-Ability to focus changes from baseline, Mean Difference ± SE [5, 12]: 0.20 ± 0.26
VAS-Ability to focus changes from baseline, effect size d [5, 12]: 0.20
VAS-Ability to focus rating, Mean [5, 13]: 6.5
VAS-Ability to focus changes from baseline, Mean Difference ± SE [5, 14]: 0.44 ± 0.24
VAS-Ability to focus changes from baseline, effect size d [5, 14]: 0.38
VAS-Ability to focus rating, Mean [5, 15]: 6.7
VAS-Ability to focus rating, Mean ([5]; Day 0 (before supplementation)): 5.9
Diastolic blood pressure, Mean [6, 16]: 77.3 mm Hg
Diastolic blood pressure changes from baseline, Mean Difference ± SE [6, 17]: 1.28 ± 1.65 mm Hg
Diastolic blood pressure changes from baseline, effect size d [6, 17]: −0.21
Diastolic blood pressure, Mean [6, 18]: 76.9 mm Hg
Diastolic blood pressure changes from baseline, Mean Difference ± SE [6, 19]: 5.84 ± 1.55 mm Hg
Diastolic blood pressure changes from baseline, effect size d [6, 19]: −0.84
Diastolic blood pressure, Mean [6, 20]: 75.6 mm Hg
Diastolic blood pressure changes from baseline, Mean Difference ± SE [6, 21]: 2.64 ± 1.66 mm Hg
Diastolic blood pressure changes from baseline, effect size d [6, 21]: −0.42
Diastolic blood pressure, Mean [6, 22]: 77.2 mm Hg
Diastolic blood pressure, Mean ([6]; Day 0 (before supplementation)): 76.6 mm Hg
